In patent US4798896A, “Antipsychotic gamma-carboline N-oxides” (American Home Products Corporation, priority 1988, dated 1989):

Tests used:
[1] = target: T1, serotonin-2 receptors (5HT2) (Rattus norvegicus, UniProt P14842); experiment: serotonin-2 (5HT2) receptor binding in brain cortical tissue; conditions: for inhibition at 1 µM: read-out: % Inhibition of serotonin 5HT2 binding, at 1 μM
T1 construct: employing brain cortical tissue; from tissue; host or cells: brain cortical tissue

[2] = test system: trained male CD rats (Charles River); experiment: conditioned avoidance, shelf-jump response test in trained rats; type: in vivo, rat
Source text: The antipsychotic/anxiolytic properties of the pyridine N-oxides of this invention were established by standard pharmacologically accepted procedures involving conditioned avoidance studies in which trained male CD rats (Charles River), 400-500 gm body weight, are exposed to a fifteen second warning tone (conditional stimulus) continued for an additional fifteen seconds accompanied by electric shock. The rates can avoid the electric shock by jumping to an exposed shelft (shelf-jump response). A response during the initial warning tone is considered to be an avoidance response while a response during shock delivery is considered an escape response. The avoidance response is determined and expressed as a percentage of total trials from an appropriate number of trials. The shelf-jump response test procedure follows that of Herman et al., Comm. in Psychopharm., 3, 165 (1979).

[3] = target: T2, dopamine receptors (limbic D2) (Rattus norvegicus, UniProt P61169); experiment: limbic (accumbens) D2 binding, 3H-spiroperidol; conditions: limbic brain tissue
T2 construct: from tissue
T2 sequence (P61169 whole entry): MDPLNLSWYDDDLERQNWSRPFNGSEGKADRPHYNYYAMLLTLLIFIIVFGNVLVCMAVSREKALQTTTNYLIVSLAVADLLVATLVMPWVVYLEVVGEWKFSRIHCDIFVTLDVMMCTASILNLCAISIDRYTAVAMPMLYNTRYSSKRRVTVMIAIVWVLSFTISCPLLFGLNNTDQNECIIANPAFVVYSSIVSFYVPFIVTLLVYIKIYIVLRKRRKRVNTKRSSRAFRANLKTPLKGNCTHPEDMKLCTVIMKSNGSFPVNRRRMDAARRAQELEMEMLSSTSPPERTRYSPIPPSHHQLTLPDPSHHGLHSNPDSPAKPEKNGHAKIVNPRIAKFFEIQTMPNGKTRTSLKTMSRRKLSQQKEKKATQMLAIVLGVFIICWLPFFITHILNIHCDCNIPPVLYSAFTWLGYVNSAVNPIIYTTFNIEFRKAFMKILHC
Experimental: (§1) Following the procedures of Fields et al., Brain Res., 136, 578 (1977) and Yamamura et al., Neurotransmitter Receptor Binding, Raven Press, N.Y. (1978), homogenized limbic brain tissue is incubated with ^3 H-spiroperidol and various concentrations of test compound, filtered and washed and shaken with Hydrofluor scintillation cocktail (National Diagnostics) and counted in a Packard 460 CD scintillation counter. Binding in the presence of test compound is expressed as percent of specific binding [total binding less binding in the presence of 1 μM (+) butaclamol]. This limbic D2 binding procedure assesses a compounds potential binding at dopamine receptors as a predictor of antipsychotic activity.

[4] = detection of metabolite in monkey urine and plasma after administration of the parent drug; type: in vivo; conditions: intragastric 4 mg/kg or iv 1 mg/kg of parent drug
Source text: (§2) By comparative analysis, the compounds of this invention were discovered to be one major form of several metabolites of the compounds disclosed in U.S. Pat. Nos. 4,636,563 and 4,672,117. This may be illustrated by consideration of the metabolic conversion of the compound of claim 13 of U.S. Pat. No. 4,636,563. Oral administration of the drug 8-fluoro-2,3,4,5-tetrahydro-2-[3-(3-pyridinyl)propyl]-1H-pyrido[4,3-b]indole to rats at a dose of 100 milligrams per kg followed by collectiion of urine and isolation of metabolites by column chromatography and selective solubilization in organic solvents yielded several metabolites. […] This metabolic pathway is consistent with the other anti-psychotic-anxilytic agents disclosed and claimed in U.S. Pat. Nos. 4,636,563 and 4,672,117.

[5] = isolation of metabolites from rat urine after oral administration of the parent drug; type: in vivo; conditions: oral administration of parent drug at 100 mg/kg
Source text: as §2

[6] = overall appraisal from conditioned avoidance, serotonin binding inhibition and dopamine receptor binding inhibition procedures; conditions: tertiary nitrogen oxides of the parent compared
Experimental: as §1

T1 sequence (P14842 whole entry): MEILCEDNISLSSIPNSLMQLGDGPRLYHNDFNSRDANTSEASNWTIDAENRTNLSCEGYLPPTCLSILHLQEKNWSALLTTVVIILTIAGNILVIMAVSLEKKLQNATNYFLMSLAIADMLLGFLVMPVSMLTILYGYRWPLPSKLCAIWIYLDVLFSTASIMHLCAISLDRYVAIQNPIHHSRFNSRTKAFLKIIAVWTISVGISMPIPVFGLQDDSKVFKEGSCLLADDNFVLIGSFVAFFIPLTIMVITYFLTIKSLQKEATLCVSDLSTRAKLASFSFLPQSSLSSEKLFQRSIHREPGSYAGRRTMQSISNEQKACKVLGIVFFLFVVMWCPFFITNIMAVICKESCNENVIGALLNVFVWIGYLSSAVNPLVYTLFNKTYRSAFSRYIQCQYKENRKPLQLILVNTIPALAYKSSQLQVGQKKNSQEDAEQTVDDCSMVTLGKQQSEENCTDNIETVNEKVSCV

Structure (SMILES) | inhibition at 1 µM [1] [%] | inhibition at 1 µM [3] [%] | further results
[O-][N+]1(CCCc2cccnc2)CCc2[nH]c3ccc(F)cc3c2C1 (stereo not drawn) [C, 8-Fluoro-2,3,4,5-tetrahydro-2-[3-(3-pyridinyl)propyl]-1H-piperidino[4,3-b]indole 2-oxide] | 18 | 0 | Inhibition of shelf-jump ([2]; result in words, dose not given): not significant
[O-][n+]1cccc(CCCN2CCc3[nH]c4ccc(F)cc4c3C2)c1 [D, 8-Fluoro-2,3,4,5-tetrahydro-2-[3-(3-pyridinyl)propyl]-1H-piperidino[4,3-b]indole N-oxide] | 68 | 66 | detection as metabolite in urine and plasma [4]: detected in monkey urine and plasma; metabolite of the parent drug in urine [5]: one of the major metabolites; Inhibition of shelf-jump ([2]; 40 mg/kg): 16%; antipsychotic/anxiolytic activity [6]: meaningful antipsychotic/anxiolytic activity
Fc1ccc2[nH]c3c(c2c1)CN(CCCc1cccnc1)CC3 [A, 8-fluoro-2,3,4,5-tetrahydro-2-[3-(3-pyridinyl)propyl]-1H-piperidino(4,3-b]indole, reference compound] | 78 | 93 | Inhibition of shelf-jump ([2]; 20 mg/kg): 73%
[O-][n+]1cccc(CCC[N+]2([O-])CCc3[nH]c4ccc(F)cc4c3C2)c1 (stereo not drawn) [B, 8-Fluoro-2,3,4,5-tetrahydro-2-[3-(3-pyridinyl)propyl]-1H-piperidino[4,3-b]indole N,2-dioxide] | 18 | 4 | 
NCCc1ccc(O)c(O)c1 [dopamine, reference compound] |  |  | activity at serotonin-2 receptor [1]: inactive
